This passage reports IC50 results from patent US12209102B2, “Heterocyclic compounds and uses thereof” (Kumquat Biosciences Inc., priority 2022, dated 2025).

One assay concerns the target T1, K-Ras G12D (Homo sapiens, UniProt P01116, G12D).
T1 construct: made in house; host or cells: E. coli BL21 (DE3)
Nature of the assay: HTRF resonance energy transfer assay, K-Ras G12D / SOS1 interaction. In kind it is biochemical. The note with it: HTRF assay of Example 5; read-out: IC50 against K-Ras G12D. In outline:
(§1)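 Read-out: HTRF 665/620 nm ratio (excitation 337 nm) after roughly 10 min or longer incubation, used to derive IC50. Donor anti-GST-Eu on GST-K-Ras; acceptor anti-6His-XL665 on His-hSOS1. Duplicate dose series from 10 μM down to 0.01 μM.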
In general terms: TR-FRET usually uses a lanthanide donor and a delayed reading to cut background.

The next assay concerns the target T2, K-Ras G12S (Homo sapiens, UniProt P01116, G12S).
T2 construct: made in house; host or cells: E. coli BL21 (DE3)
Nature of the assay: HTRF resonance energy transfer assay, K-Ras G12S / SOS1 interaction. In kind it is biochemical. The note with it: HTRF assay of Example 5; read-out: IC50 against K-Ras G12S. In outline: as §1

Another assay concerns the target T3, K-Ras G12V (Homo sapiens, UniProt P01116, G12V).
T3 construct: made in house; host or cells: E. coli BL21 (DE3)
Nature of the assay: HTRF resonance energy transfer assay, K-Ras G12V / SOS1 interaction. The class given is biochemical. Conditions: HTRF assay of Example 5; read-out: IC50 against K-Ras G12V. In outline:
as §1

The target of the next assay is T4, K-Ras WT (Homo sapiens, UniProt P01116).
T4 construct: made in house; host or cells: E. coli BL21 (DE3)
Nature of the assay: HTRF resonance energy transfer assay, K-Ras WT / SOS1 interaction. The class given is biochemical. Conditions: HTRF assay of Example 5; read-out: IC50 against K-Ras WT. Put shortly: as §1

In a further assay the test system is A549 cells. The assay can be described thus: Ras cellular assay, growth of cells with K-Ras G12S mutation (CellTiter-Glo). In kind it is cell-based. The note with it: Homo sapiens, cell growth, Example 9, G12S mutation, read-out: IC50 against A549 cells. Put shortly:
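A549 cells (K-Ras G12S) in RPMI-1640 with 10% heat-inactivated FBS, seeded e.g. 800 per well in standard or ultra-low-attachment 384-well plates, treated next day with a dilution series (e.g. 10-point, 3-fold). Viability by CellTiter-Glo luminescence about 6 days later; IC50 from four-parameter fit.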
Background: ATP-based viability assays read luminescence as a measure of living cells.

In a further assay the test system is SW620 cells. The assay can be described thus: Ras cellular assay, growth of cells with K-Ras G12V mutation (CellTiter-Glo). The class given is cell-based. Conditions: Homo sapiens, SW-620; cell growth, Example 9, G12V mutation; read-out: IC50 against SW620 cells. In outline:
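SW620 (K-Ras G12V) cells, e.g. 800/well in RPMI-1640 with 10% heat-inactivated FBS on standard or ultra-low attachment plates, were dosed the day after plating with e.g. a 10-point 3-fold series. Viability by CellTiter-Glo luminescence about 6 days later; IC50 from four-parameter fit.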

T3 sequence (P01116 1-188 isoform P01116-2 G12V): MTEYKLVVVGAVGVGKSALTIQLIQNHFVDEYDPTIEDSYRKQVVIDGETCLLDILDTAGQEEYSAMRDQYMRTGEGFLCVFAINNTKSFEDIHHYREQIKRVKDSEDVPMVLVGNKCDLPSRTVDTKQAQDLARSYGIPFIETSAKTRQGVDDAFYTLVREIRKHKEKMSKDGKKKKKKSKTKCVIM
T1 sequence (P01116 1-188 isoform P01116-2 G12D): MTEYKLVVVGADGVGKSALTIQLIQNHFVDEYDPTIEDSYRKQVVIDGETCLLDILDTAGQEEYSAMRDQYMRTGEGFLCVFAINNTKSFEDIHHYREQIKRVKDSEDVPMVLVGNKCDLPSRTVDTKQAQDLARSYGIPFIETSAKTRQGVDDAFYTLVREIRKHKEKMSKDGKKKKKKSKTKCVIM
T2 sequence (P01116 1-188 isoform P01116-2 G12S): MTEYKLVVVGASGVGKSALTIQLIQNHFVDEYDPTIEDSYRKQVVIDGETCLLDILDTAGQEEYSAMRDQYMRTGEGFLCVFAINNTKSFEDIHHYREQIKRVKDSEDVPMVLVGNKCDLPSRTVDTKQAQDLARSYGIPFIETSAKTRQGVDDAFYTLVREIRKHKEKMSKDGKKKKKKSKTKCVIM
T4 sequence (P01116 1-188 isoform P01116-2): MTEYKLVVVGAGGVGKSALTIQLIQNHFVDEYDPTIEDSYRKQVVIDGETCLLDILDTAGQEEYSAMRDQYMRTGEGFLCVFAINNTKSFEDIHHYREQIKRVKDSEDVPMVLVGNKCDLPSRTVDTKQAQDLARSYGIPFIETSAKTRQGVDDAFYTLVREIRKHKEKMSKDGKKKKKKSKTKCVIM

Usually IC50 stands for the point on the concentration scale where inhibition reaches its midpoint. For the compound `N#Cc1c(N)sc2c(F)ccc(-c3c(Cl)c4c5c(nc(OC[C@@]67CCCN6C[C@H](F)C7)nc5c3F)N(C3CCC5(C3)CN(C(=O)C3CC3)C5)CCO4)c12` (stereo partly drawn) [Compound 1011, 2-amino-4-(8-chloro-4-(2-(cyclopropanecarbonyl)-2-azaspiro[3.4]octan-6-yl)-10-fluoro-2-(((2R,7aS)-2-fluorotetrahydro-1H-pyrrolizin-7a(5H)-yl)methoxy)-5,6-dihydro-4H-[1,4]oxazepino[5,6,7-de]quinazolin-9-yl)-7-fluorobenzo[b]thiophene-3-carbonitrile], the IC50 at K-Ras G12D is below 100 nM; on K-Ras G12S, below 100 nM; at K-Ras G12V, below 100 nM; on K-Ras WT it was below 100 nM; in the assay with A549 cells, below 5 µM; with SW620 cells it was below 5 µM.

Consider `C[C@H](Oc1nc2c3c(c(Cl)c(-c4ccc(F)c5sc(N)c(C#N)c45)c(F)c3n1)OCCN2C1CCN(C(=O)c2ccnn2C)CC1)[C@@H]1CCCN1C` [Compound 1012, 2-amino-4-(8-chloro-10-fluoro-4-(1-(1-methyl-1H-pyrazole-5-carbonyl)piperidin-4-yl)-2-((S)-1-((S)-1-methylpyrrolidin-2-yl)ethoxy)-5,6-dihydro-4H-[1,4]oxazepino[5,6,7-de]quinazolin-9-yl)-7-fluorobenzo[b]thiophene-3-carbonitrile], for which the IC50 was below 100 nM at K-Ras G12D; below 100 nM on K-Ras G12S; below 100 nM on K-Ras G12V; below 100 nM on K-Ras WT; below 5 µM with A549 cells; below 5 µM in the assay on SW620 cells.

Consider `COCC1CN(CC(F)F)c2nc(OC[C@@]34CCCN3C[C@H](F)C4)nc3c(F)c(-c4ccc(F)c5sc(N)c(C#N)c45)c(Cl)c(c23)O1` (stereo partly drawn) [Compound 1030, 2-amino-4-(8-chloro-4-(2,2-difluoroethyl)-10-fluoro-2-(((2R,7aS)-2-fluorotetrahydro-1H-pyrrolizin-7a(5H)-yl)methoxy)-6-(methoxymethyl)-5,6-dihydro-4H-[1,4]oxazepino[5,6,7-de]quinazolin-9-yl)-7-fluorobenzo[b]thiophene-3-carbonitrile], for which the concentration for half-maximal inhibition (IC50) on K-Ras G12D is below 100 nM; at K-Ras G12S, below 100 nM; on K-Ras G12V, below 100 nM; on K-Ras WT, below 100 nM; in the assay with A549 cells, below 5 µM; in the assay with SW620 cells, below 5 µM.

With `N#Cc1c(N)sc2c(F)ccc(-c3c(Cl)c4c5c(nc(OC[C@@]67CCCN6C[C@H](F)C7)nc5c3F)N(C3CC(C#N)C3)CCO4)c12` (stereo partly drawn) [Compound 1043, 2-amino-4-(8-chloro-4-(3-cyanocyclobutyl)-10-fluoro-2-(((2R,7aS)-2-fluorotetrahydro-1H-pyrrolizin-7a(5H)-yl)methoxy)-5,6-dihydro-4H-[1,4]oxazepino[5,6,7-de]quinazolin-9-yl)-7-fluorobenzo[b]thiophene-3-carbonitrile], the IC50 on K-Ras G12D was below 100 nM; at K-Ras G12S, below 100 nM; at K-Ras G12V, below 100 nM; on K-Ras WT, below 100 nM; in the assay on A549 cells, below 5 µM; in the assay on SW620 cells, below 5 µM.

For `C[C@H]1CN(C2CC2)c2nc(OC[C@@]34CCCN3C[C@H](F)C4)nc3c(F)c(-c4ccc(F)c5sc(N)c(C#N)c45)c(Cl)c(c23)O1` [Compound 1044, 2-amino-4-((6S)-8-chloro-4-cyclopropyl-10-fluoro-2-(((2R,7aS)-2-fluorotetrahydro-1H-pyrrolizin-7a(5H)-yl)methoxy)-6-methyl-5,6-dihydro-4H-[1,4]oxazepino[5,6,7-de]quinazolin-9-yl)-7-fluorobenzo[b]thiophene-3-carbonitrile], the IC50 is below 100 nM on K-Ras G12D; below 100 nM at K-Ras G12S; below 100 nM at K-Ras G12V; below 100 nM on K-Ras WT; below 5 µM with A549 cells; below 5 µM with SW620 cells.

Turning to `C[C@H]1CN(C2CCN(C(=O)C3CC3C#N)CC2)c2nc(OC[C@@]34CCCN3C[C@H](F)C4)nc3c(F)c(-c4ccc(F)c5sc(N)c(C#N)c45)c(Cl)c(c23)O1` (stereo partly drawn) [Compound 1051, 2-amino-4-((6S)-8-chloro-4-(1-(2-cyanocyclopropane-1-carbonyl)piperidin-4-yl)-10-fluoro-2-(((2R,7aS)-2-fluorotetrahydro-1H-pyrrolizin-7a(5H)-yl)methoxy)-6-methyl-5,6-dihydro-4H-[1,4]oxazepino[5,6,7-de]quinazolin-9-yl)-7-fluorobenzo[b]thiophene-3-carbonitrile], the IC50 was below 100 nM on K-Ras G12D; below 100 nM on K-Ras G12S; below 100 nM at K-Ras G12V; below 100 nM at K-Ras WT; below 5 µM with A549 cells; below 5 µM in the assay with SW620 cells.

Take `CC(C1CC1)N1CCOc2c(Cl)c(-c3ccc(F)c4sc(N)c(C#N)c34)c(F)c3nc(OC[C@@]45CCCN4C[C@H](F)C5)nc1c23` (stereo partly drawn) [Compound 1054, 2-amino-4-(8-chloro-4-(1-cyclopropylethyl)-10-fluoro-2-(((2R,7aS)-2-fluorotetrahydro-1H-pyrrolizin-7a(5H)-yl)methoxy)-5,6-dihydro-4H-[1,4]oxazepino[5,6,7-de]quinazolin-9-yl)-7-fluorobenzo[b]thiophene-3-carbonitrile]: the IC50 was below 100 nM on K-Ras G12D; below 100 nM on K-Ras G12S; below 100 nM on K-Ras G12V; below 100 nM at K-Ras WT; below 5 µM with A549 cells; below 5 µM in the assay on SW620 cells.

Turning to `CN(CCN1CCOc2c(Cl)c(-c3ccc(F)c4sc(N)c(C#N)c34)c(F)c3nc(OC[C@@]45CCCN4C[C@H](F)C5)nc1c23)C(=O)C1COC1` [Compound 1058, N-(2-(9-(2-amino-3-cyano-7-fluorobenzo[b]thiophen-4-yl)-8-chloro-10-fluoro-2-(((2R,7aS)-2-fluorotetrahydro-1H-pyrrolizin-7a(5H)-yl)methoxy)-5,6-dihydro-4H-[1,4]oxazepino[5,6,7-de]quinazolin-4-yl)ethyl)-N-methyloxetane-3-carboxamide], the IC50 at K-Ras G12D was below 100 nM; at K-Ras G12S, below 100 nM; at K-Ras G12V it was below 100 nM; on K-Ras WT it was below 100 nM; in the assay with A549 cells, below 5 µM; in the assay on SW620 cells it was below 5 µM.

On to `N#Cc1c(N)sc2c(F)ccc(-c3c(Cl)c4c5c(nc(OC[C@@]67CCCN6C[C@H](F)C7)nc5c3F)N(CC3CCOCC3)CCO4)c12` [Compound 1067, 2-amino-4-(8-chloro-10-fluoro-2-(((2R,7aS)-2-fluorotetrahydro-1H-pyrrolizin-7a(5H)-yl)methoxy)-4-((tetrahydro-2H-pyran-4-yl)methyl)-5,6-dihydro-4H-[1,4]oxazepino[5,6,7-de]quinazolin-9-yl)-7-fluorobenzo[b]thiophene-3-carbonitrile], for which the IC50 is below 100 nM at K-Ras G12D; below 100 nM on K-Ras G12S; below 100 nM at K-Ras G12V; below 100 nM at K-Ras WT; below 5 µM with A549 cells; below 5 µM in the assay with SW620 cells.
